Data from US20110071124A1, “Compounds that Inhibit Production of sAPPB and AB and Uses Thereof” (The Trustees of Columbia University in the City of New York, priority 2008, published 2011).

test system: Aβ40 in SY5Y-BACEGFP-SEAPAPPwt cells; test: Aβ40 ELISA (BioSource) in SY5Y-BACEGFP-SEAPAPPwt cells; assay type: cell-based; conditions: 4 concentrations (30, 10, 3, 0.3 μM), 6 hours
Experimental: FIG. 11. 5 LDDN compounds reduce Aβ40 in SYSY-BACEGFP-SEAPAPPwt cells. sAPPβ and 24-hour cell viability was performed as described in Chapter 4.1. Aβ40 ELISA was performed using the Aβ40 ELISA kit (BioSource) according to the manufacturer's protocol. Cell culture media was collected after 6 hours of treatment with 4 concentrations (30, 10, 3, 0.3 μM) of compound and diluted 3:10 prior to loading onto the Aβ ELISA plate. The data points for sAPPβ and Aβ were roughly superimposed. Data points represent mean±s.d. of 3 determinations.
(§1) FIG. 13. […] Compounds were tested in SY5Y-BACEGFP-SEAPAPPwt cells using the cell-based BACE1 assay. Select compounds were also investigated for Aβ-lowering effect using a commercial Aβ ELISA kit (BioSource). All compounds were tested at 8 concentrations (30, 10, 3, 1, 0.3, 0.1, 0.03, and 0.01 μM), and data points were analyzed with Origin software and fitted using a logistic model for IC50 determination.
In other non-limiting embodiments, the effective amount of at least one compound of Formulas I-VII, and/or a compound depicted in FIG. 19, may be correlated with the compound's ability to reduce the level of Aβ40 in an in vitro assay that measures the level of Aβ40 produced in a cell line, for example, an SY5Y-BACEGFP-SEAPAPPwt cell line. In one non-limiting example, the level of Aβ40 expressed by the cell line may be measured through the use of an Aβ40 Elisa kit (Bio Source). In one embodiment, the assay comprises incubating the Aβ40 expressing cells with a compound of Formulas I-VII, and/or a compound depicted in FIG. 19, followed by assaying the concentration of Aβ40 in the cell media. In such an assay, a greater reduction of Aβ40 concentration in the cell media following incubation with a compound compared to a control cell line not contacted with the compound is correlative with the compound's therapeutic efficacy.
The 15 LDDN compounds were tested in SY5Y-BACEGFP-SEAPAPPwt cells for their ability to reduce Aβ40 using a commercial Aβ40 ELISA kit (BioSource). SY5Y-BACEGFP-SEAPAPPwt cells were grown to 100% confluence and incubated with 4 concentrations of each compound (30, 10, 3, 0.3 μM). Cell culture media was collected after 6 hours of compound incubation and diluted 3:10 in sample diluent supplied in the Aβ40 ELISA kit. Aβ ELISA was performed according to the manufacturer's protocol. […] LDN-0057228 and LDN-0069630 are small molecules with ample chemical space for modification, and are thus considered good candidates for medicinal chemistry.
(§2) 27 structural analogs of LDN-0057228 were synthesized and tested using the cell-based BACE1 assay in SY5Y-BACEGFP-SEAPAPPwt cells (FIG. 13). 4 analogs, in addition to the parent compound, were also assessed for Aβ40 lowering activity using a commercial Aβ kit (BioSource). Because LDN-0057228 resembles CNS monoamine transporter inhibitors, this analog series was given the designation “CNS.” LDN-0057228 gave an unexpectedly low potency (IC50˜20 μM for both sAPPβ and Aβ40 reduction) compared to the ˜7 μM potency obtained using the same compound in FIG. 8.

| Compound | dose-dependent decrease in Aβ40 |
| --- | --- |
| CS(=O)(=O)c1nnnn1-c1ccccc1Cl [LDN-0069630] | caused a dose-dependent decrease in Aβ40 |

same assay, conditions: SAR study, 8 concentrations (30-0.01 μM), SY5Y-BACEGFP-SEAPAPPwt cells

| Compound | IC50 [µM] |
| --- | --- |
| CNC[C@@H]1CCCN1CCOC(c1ccc(F)cc1)c1ccc(F)cc1 [CNS-3] | 11.5 |
| Fc1ccc(C(OCCN2CCN(CCCc3ccccc3)CC2)c2ccc(F)cc2)cc1 [GBR 12909, reference compound] | 14.5 |

test system: sAPPβ (BACE1 cleavage of SEAP-APPwt) in SY5Y-BACEGFP-SEAPAPPwt cells; test: cell-based BACE1 assay (sAPPβ modified ELISA); conditions: 10 μM, positive control, 384-well LDDN screen, on average
Experimental: FIG. 1. An sAPPβ assay utilized to identify inhibitors of BACE1. The assay utilizes SY5Y cells stably overexpressing BACE-GFP and SEAP-APPwt. Cells are incubated with a candidate compound for 6 hours prior to harvesting media. BACE1-mediated cleavage of APP results in the release of sAPPβ into the media. α-secretase, a competing enzyme that is non-amyloidogenic, also cleaves APP to release […]. Using an sAPPβ-specific antibody (sβwt), SEAP-sAPPβ is specifically captured in a modified ELISA assay. Detection is achieved by addition of the fluorescent alkaline phosphatase substrate, 4-methylumbelliferyl phosphate (4-MUP).
as §1
As described in the Examples below, and depicted in FIG. 1, an sAPPβ ELISA assay may comprise cells, for example, SY5Y cells, transfected with a BACE1 reporter construct, such as a GFP-tagged BACE1 (BACE-GFP), and a wild type APP reporter construct, such as a secreted alkaline phosphatase (SEAP)-tagged wild type APP (SEAP-APPwt). BACE1 cleavage of the reporter-tagged APP (e.g. SEAP-APPwt) may result in secretion into the media of SEAP-tagged sAPPβ, which may be collected and specifically captured using an sAPPβ cleavage site-specific antibody (e.g. stβwt). Following washing, a substrate may be used, for example, the fluorescent alkaline phosphatase substrate 4-methylumbelliferyl phosphate (4-MUP), to detect the captured SEAP-sAPPβ.
A cell-based modified ELISA assay for measuring sAPPβ, the secreted ectodomain of β-amyloid precursor protein (APP) following β-secretase (BACE1) cleavage, was used to identify a class of compounds that interfered with the first step of sAPPβ generation. This assay has been described in International Application PCT/US2007/015938 (Published as International Publication No. WO 08/008463), which is herein incorporated in its entirety for all purposes.
The SY5Y-BACEGFP-SEAPAPPwt cell based assay was developed to discover novel small molecule modulators of BACE1 activity. SY5Y cells were stably transfected with GFP-tagged BACE1 (BACE-GFP) and secreted alkaline phosphatase (SEAP)-tagged wildtype APP (SEAP-APPwt). BACE1 cleavage of SEAP-APPwt results in secretion into the media of SEAP-tagged sAPPβ, which is collected and specifically captured using an sAPP0 cleavage site-specific antibody (sβwt). After washing, the fluorescent alkaline phosphatase substrate 4-methylumbelliferyl phosphate (4-MUP) is used to detect the captured SEAP-sAPPβ (FIG. 1).
The 15 LDDN compounds selected based on their 3-point dose-response profile were tested at 12 concentrations (ranging from 0.1 nM to 30 μM) in the cell-based BACE1 assay. The assay was conducted in 96-well format to maximize the Z′ factor. Compounds were characterized in duplicate cell plates, each containing 12 doses of compound in triplicate. Cell viability was measured at 6 and 24 hours using Promega's Cell Titer-Glo kit according to the manufacturer's protocol. The dose-response curves for sAPPβ reduction were plotted using Origin software and fitted using a logistic model for IC50 determination.
as §2

| Compound | suppression of sAPPβ generation [%] |
| --- | --- |
| BACE inhibitor IV [reference compound] | > 95 |

same assay, conditions: SAR study, 8 concentrations (30-0.01 μM), SY5Y-BACEGFP-SEAPAPPwt cells

| Compound | IC50(sAPPβ) |
| --- | --- |
| NC(=O)[C@H]1CCCN1CCOC(c1ccc(F)cc1)c1ccc(F)cc1 [CNS-11] | inactive |
| NC(=O)[C@@H]1CCCCN1CCOC(c1ccc(F)cc1)c1ccc(F)cc1 [CNS-15] | inactive |
| NC(=O)[C@@H]1CCCN1CCOC(c1ccc(F)cc1)c1ccc(F)cc1 [CNS-16] | inactive |
| NC(=O)[C@@H]1CCN1CCOC(c1ccc(F)cc1)c1ccc(F)cc1 [CNS-17] | inactive |
| O=C(CCc1ccccc1)NC[C@@H]1CCN1CCOC(c1ccc(F)cc1)c1ccc(F)cc1 [CNS-19] | inactive |
| Fc1ccc(C(OCCN2CC[C@H]2CNCCCc2ccccc2)c2ccc(F)cc2)cc1 [CNS-20] | inactive |
| O=C(CCc1ccccc1)NCCNCCOC(c1ccc(F)cc1)c1ccc(F)cc1 [CNS-21] | inactive |
| Fc1ccc(C(OCCNCCNCCCc2ccccc2)c2ccc(F)cc2)cc1 [CNS-22] | inactive |
| O=C(CCc1ccccc1)NCCN(CCOC(c1ccc(F)cc1)c1ccc(F)cc1)CCOC(c1ccc(F)cc1)c1ccc(F)cc1 [CNS-23] | inactive |
| NC(=O)[C@@H]1CCCN1C(c1ccc(F)cc1)c1ccc(F)cc1 [CNS-24] | inactive |

same assay, conditions: SAR study, 8 concentrations (30-0.01 μM), SY5Y-BACEGFP-SEAPAPPwt cells; read-out: IC50(sAPPβ)

| Compound | IC50 [µM] |
| --- | --- |
| Fc1ccc(C(OCCN2CCC[C@H]2CNCCCc2ccccc2)c2ccc(F)cc2)cc1 [CNS-1] | 10.5 |
| CNC[C@@H]1CCCN1CCOC(c1ccc(F)cc1)c1ccc(F)cc1 [CNS-3] | 11.5 |
| COC(=O)NC[C@@H]1CCCN1CCOC(c1ccc(F)cc1)c1ccc(F)cc1 [CNS-4] | 23.3 |
| CC(=O)NC[C@@H]1CCCN1CCOC(c1ccc(F)cc1)c1ccc(F)cc1 [CNS-5] | 20.8 |
| NC[C@@H]1CCCN1CCOC(c1ccc(F)cc1)c1ccc(F)cc1 [CNS-6] | 27.9 |
| Fc1ccc(C(OCCN2CCC[C@@H]2CNCCCc2ccccc2)c2ccc(F)cc2)cc1 [CNS-8] | 5.7 |
| O=C(CCc1ccccc1)NC[C@H]1CCCN1CCOC(c1ccc(F)cc1)c1ccc(F)cc1 [CNS-9] | 20.4 |
| NC[C@H]1CCCN1CCOC(c1ccc(F)cc1)c1ccc(F)cc1 [CNS-10] | 38.3 |
| NC[C@@H]1CCCCN1CCOC(c1ccc(F)cc1)c1ccc(F)cc1 [CNS-12] | > 50 |
| Fc1ccc(C(OCCN2CCCC[C@H]2CNCCCc2ccccc2)c2ccc(F)cc2)cc1 [CNS-13] | 9 |
| O=C(CCc1ccccc1)NC[C@@H]1CCCCN1CCOC(c1ccc(F)cc1)c1ccc(F)cc1 [CNS-14] | 14 |
| NC[C@@H]1CCN1CCOC(c1ccc(F)cc1)c1ccc(F)cc1 [CNS-18] | > 50 |
| NC[C@@H]1CCCN1C(c1ccc(F)cc1)c1ccc(F)cc1 [CNS-25] | 31.4 |
| O=C(CCc1ccccc1)NC[C@@H]1CCCN1C(c1ccc(F)cc1)c1ccc(F)cc1 [CNS-26] | 32.1 |
| Fc1ccc(C(c2ccc(F)cc2)N2CCC[C@H]2CNCCCc2ccccc2)cc1 [CNS-27] | 10.2 |
| Fc1ccc(C(OCCN2CCN(CCCc3ccccc3)CC2)c2ccc(F)cc2)cc1 [GBR 12909, reference compound] | 34.6 |

test system: Aβ40 in Lenti-APPsw infected primary cortical neurons; test: Aβ40 ELISA in Lenti-APPsw infected primary cortical neurons; assay type: cell-based, mouse; conditions: 10 μM, 24 hours
Experimental: FIG. 15A-D. LDN-0057228 reduces Aβ40 and sAPPβ in primary neurons. DIV-14 primary cortical neurons from wild-type mice were incubated for 24 hours with primary culture media containing lentivirus harboring APPsw. After infection, neurons were incubated for 48 hours with 1:1 fresh to conditioned media to allow for APP expression. Neurons were then treated with LDN-0057228 at 20 μM for 24 hours in triplicate. A) Media was collected for Aβ40 ELISA. Raw Aβ40 values were normalized to APP to control for variations in lentiviral infection efficiency. B) Cell lysates were probed with 6E10 antibody to visualize the transduced full-length APP. C) sAPPβ from neuron culture media was immunoprecipitated with sβsw antibody and probed with LN27. D) Quantification of sAPPβ, normalized to APP. Data in A) and […]) represent mean+s.d. of 3 wells. Bands from B) and C) were quantified using ImageJ software.
FIG. 16A-B. CNS-2 and LDN-0057228 reduce Aβ40 in primary neurons. DIV-14 primary cortical neurons from wild-type mice were incubated for 24 hours with primary culture media containing lentivirus harboring APPsw. After infection, neurons were incubated for 48 hours with 1:1 fresh to conditioned media to allow for APP expression. Neurons were then treated for 24 hours with the indicated compound and concentration. A) Media was collected for Aβ40 ELISA. Raw Aβ40 values were normalized to APP to control for variations in lentiviral infection efficiency. B) Cell lysates were probed with 6E10 antibody to visualize the transduced full-length APP.
Lenti-APPsw infected primary cortical neurons were selected for the initial round of physiological experiments due to the relatively large batches of wild-type primary cortical neurons that were routinely harvested in the lab, the ease of lentiviral packaging. Primary cortical neurons were harvested from wild-type P0 pups using established protocols.
The Lenti-APPsw vector was co-transfected into HEK293 T cells with ViraPower packaging mix (Invitrogen) to generate the lentivirus. Lentiviral-mediated transduction of APPsw in primary neurons was performed by adding neuron primary culture media containing the lentiviral particles to wild-type DIV-14 primary neurons (FIG. 14). After 24 hours, neurons were incubated with media for 72 hours prior to collecting for Aβ40 measurement. Two batches of virus (LV-1 and LV-2) were tested, showing that there is batch-to-batch variation in the viral titer.
Using this experimental paradigm, LDN-0057228 was tested at 20 μM concentration to confirm the sAPPβ- and Aβ-lowering activity of the compound (FIG. 15). The protocol was modified slightly to allow for 24-hour compound treatment. […]

| Compound | reduction in Aβ40 [%] |
| --- | --- |
| CS(=O)(=O)c1nnnn1-c1ccccc1Cl [LDN-0069630] | 15 |

same assay, conditions: 15 μM, 24 hours

| Compound | reduction in Aβ40 [%] |
| --- | --- |
| CS(=O)(=O)c1nnnn1-c1ccccc1Cl [LDN-0069630] | 40 |
